Experiments:
human CYP11B1 = target: T1, human CYP11B1 (Homo sapiens, UniProt P15538); assay: Inhibition of hCYP11B1 in transfected V79 cells; format: cell-based; conditions: hamster V79 cells expressing human CYP11B1; substrate 11-deoxycortisol 200 nM
T1 construct: expressed in transfected cells
T1 sequence (P15538 25-503): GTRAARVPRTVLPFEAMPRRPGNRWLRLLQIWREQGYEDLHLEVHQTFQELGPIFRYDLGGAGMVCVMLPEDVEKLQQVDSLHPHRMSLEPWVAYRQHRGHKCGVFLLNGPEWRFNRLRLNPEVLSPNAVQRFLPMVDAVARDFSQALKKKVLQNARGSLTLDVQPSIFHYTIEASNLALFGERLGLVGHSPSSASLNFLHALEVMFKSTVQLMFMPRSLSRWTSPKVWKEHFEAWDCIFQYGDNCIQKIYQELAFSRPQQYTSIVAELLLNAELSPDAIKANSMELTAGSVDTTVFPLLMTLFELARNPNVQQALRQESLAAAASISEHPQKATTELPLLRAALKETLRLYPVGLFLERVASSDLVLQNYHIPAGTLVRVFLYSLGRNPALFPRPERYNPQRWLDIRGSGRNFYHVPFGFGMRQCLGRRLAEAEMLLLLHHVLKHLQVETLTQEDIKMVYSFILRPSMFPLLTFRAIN
Procedure, shortened: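 Reactions started with 200 nM 11-deoxycortisol, ran for 30 min and were stopped with ethyl acetate, after a 2 h compound preincubation. The host was stably transfected V79 hamster cells carrying human CYP11B1 plus rat P450 reductase. Percent inhibition, from LC-MS/MS or HPLC (260 nm) quantitation of substrate and product, gave the IC50.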

human CYP11B2 = target: T2, human CYP11B2 (Homo sapiens, UniProt P19099); assay: Inhibition of hCYP11B2 in transfected V79 cells; format: cell-based; conditions: hamster V79 cells expressing human CYP11B2; substrate 11-deoxycorticosterone 200 nM
T2 construct: expressed in transfected cells
T2 sequence (P19099 25-503): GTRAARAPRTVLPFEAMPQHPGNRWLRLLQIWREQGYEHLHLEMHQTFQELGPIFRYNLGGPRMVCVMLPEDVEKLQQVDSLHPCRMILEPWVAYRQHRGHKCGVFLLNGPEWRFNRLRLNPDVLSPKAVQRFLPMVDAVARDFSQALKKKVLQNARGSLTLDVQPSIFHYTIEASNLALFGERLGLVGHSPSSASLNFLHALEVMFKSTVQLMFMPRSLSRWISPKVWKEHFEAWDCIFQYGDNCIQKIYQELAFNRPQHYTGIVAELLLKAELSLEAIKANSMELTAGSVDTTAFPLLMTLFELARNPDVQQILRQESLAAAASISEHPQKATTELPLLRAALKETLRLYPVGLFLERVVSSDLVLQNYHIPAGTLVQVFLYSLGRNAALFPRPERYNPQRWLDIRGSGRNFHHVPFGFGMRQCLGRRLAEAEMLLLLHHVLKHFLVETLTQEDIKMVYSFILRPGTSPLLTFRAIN
Procedure, shortened: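 The substrate (200 nM, 30 min) was added after a 2 hour compound pre-incubation in lentivirus-transduced V79 cells stably expressing human CYP11B2 plus rat NADPH-P450 reductase.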

| SMILES | IC50 (human CYP11B1) [µM] | IC50 (human CYP11B2) [µM] |
| --- | --- | --- |
| N#Cc1ccc(-c2cncc3c2OCCN3C(=O)c2cccc(C(F)(F)F)c2)cc1 [O25, 4-(4-(3-(Trifluoromethyl)benzoyl)-3,4-dihydro-2H-pyrido[4,3-b][1,4]oxazin-8-yl)benzonitrile] | 0.476 | 0.0181 |
| N#Cc1ccc(-c2cncc3c2OCCN3C(=O)c2ccc([N+](=O)[O-])cc2)cc1 [O26, 4-(4-(4-Nitrobenzoyl)-3,4-dihydro-2H-pyrido[4,3-b][1,4]oxazin-8-yl)benzonitrile] | 1.45 | 0.0224 |
| N#Cc1ccc(-c2cncc3c2OCCN3C(=O)c2cccc([N+](=O)[O-])c2)cc1 [O27, 4-(4-(3-Nitrobenzoyl)-3,4-dihydro-2H-pyrido[4,3-b][1,4]oxazin-8-yl)benzonitrile] | 1.2 | 0.0236 |
| N#Cc1ccc(-c2cncc3c2OCCN3C(=O)c2ccc(Cl)cc2)cc1 [O28, 4-(4-(4-Chlorobenzoyl)-3,4-dihydro-2H-pyrido[4,3-b][1,4]oxazin-8-yl)benzonitrile] | 0.277 | 0.0209 |
| N#Cc1ccc(-c2cncc3c2OCCN3C(=O)c2cccc(Cl)c2)cc1 [O29, 4-(4-(3-Chlorobenzoyl)-3,4-dihydro-2H-pyrido[4,3-b][1,4]oxazin-8-yl)benzonitrile] | 1.71 | 0.0059 |
| N#Cc1ccc(-c2cncc3c2OCCN3C(=O)c2cccnc2)cc1 [O30, 4-(4-Nicotinoyl-3,4-dihydro-2H-pyrido[4,3-b][1,4]oxazin-8-yl)benzonitrile] | 4.69 | 0.11 |
| N#Cc1ccc(-c2cncc3c2OCCN3C(=O)c2ccco2)cc1 [O31, 4-(4-(Furan-2-carbonyl)-3,4-dihydro-2H-pyrido[4,3-b][1,4]oxazin-8-yl)benzonitrile] | 0.187 | 0.0028 |
| N#CCC(=O)N1CCOc2c(-c3ccc(C#N)cc3)cncc21 [O32, 4-(4-(2-Cyanoacetyl)-3,4-dihydro-2H-pyrido[4,3-b][1,4]oxazin-8-yl)benzonitrile] | 0.785 | 0.018 |
| N#Cc1ccc(-c2cncc3c2OCCN3C(=O)CCl)cc1 [O33, 4-(4-(2-Chloroacetyl)-3,4-dihydro-2H-pyrido[4,3-b][1,4]oxazin-8-yl)benzonitrile] | 1.27 | 0.0183 |
| N#Cc1ccc(-c2cncc3c2OCCN3C(=O)CBr)cc1 [O34, 4-(4-(2-Bromoacetyl)-3,4-dihydro-2H-pyrido[4,3-b][1,4]oxazin-8-yl)benzonitrile] | 0.546 | 0.0174 |
| N#Cc1ccc(-c2cncc3c2OCCN3C(=O)C(F)(F)F)cc1 [O35, 4-(4-(2,2,2-Trifluoroacetyl)-3,4-dihydro-2H-pyrido[4,3-b][1,4]oxazin-8-yl)benzonitrile] | 0.101 | 0.0009 |
| N#Cc1ccc(-c2cncc3c2OCCN3C(=O)Cc2ccc(F)cc2)cc1 [O36, 4-(4-(2-(4-Fluorophenyl)acetyl)-3,4-dihydro-2H-pyrido[4,3-b][1,4]oxazin-8-yl)benzonitrile] | 0.262 | 0.0018 |
| N#Cc1ccc(-c2cncc3c2OCCN3C(=O)Cc2cccc(F)c2)cc1 [O37, 4-(4-(2-(3-Fluorophenyl)acetyl)-3,4-dihydro-2H-pyrido[4,3-b][1,4]oxazin-8-yl)benzonitrile] | 0.086 | 0.0014 |
| N#Cc1ccc(-c2cncc3c2OCCN3C(=O)Cc2ccc(Cl)cc2)cc1 [O38, 4-(4-(2-(4-Chlorophenyl)acetyl)-3,4-dihydro-2H-pyrido[4,3-b][1,4]oxazin-8-yl)benzonitrile] | 0.559 | 0.0168 |
| N#Cc1ccc(-c2cncc3c2OCCN3C(=O)Cc2cccc(Cl)c2)cc1 [O39, 4-(4-(2-(3-Chlorophenyl)acetyl)-3,4-dihydro-2H-pyrido[4,3-b][1,4]oxazin-8-yl)benzonitrile] | 0.142 | 0.0026 |
| COc1ccc(CC(=O)N2CCOc3c(-c4ccc(C#N)cc4)cncc32)cc1 [O40, 4-(4-(2-(4-Methoxyphenyl)acetyl)-3,4-dihydro-2H-pyrido[4,3-b][1,4]oxazin-8-yl)benzonitrile] | 0.073 | 0.0008 |
| COc1cccc(CC(=O)N2CCOc3c(-c4ccc(C#N)cc4)cncc32)c1 [O41, 4-(4-(2-(3-Methoxyphenyl)acetyl)-3,4-dihydro-2H-pyrido[4,3-b][1,4]oxazin-8-yl)benzonitrile] | 0.052 | 0.0018 |
| Cc1ccc(CC(=O)N2CCOc3c(-c4ccc(C#N)cc4)cncc32)cc1 [O42, 4-(4-(2-(p-Tolyl)acetyl)-3,4-dihydro-2H-pyrido[4,3-b][1,4]oxazin-8-yl)benzonitrile] | 0.067 | 0.0006 |
| Cc1cccc(CC(=O)N2CCOc3c(-c4ccc(C#N)cc4)cncc32)c1 [O43, 4-(4-(2-(m-Tolyl)acetyl)-3,4-dihydro-2H-pyrido[4,3-b][1,4]oxazin-8-yl)benzonitrile] | 0.125 | 0.0047 |
| Cc1ccccc1CC(=O)N1CCOc2c(-c3ccc(C#N)cc3)cncc21 [O44, 4-(4-(2-(o-Tolyl)acetyl)-3,4-dihydro-2H-pyrido[4,3-b][1,4]oxazin-8-yl)benzonitrile] | 0.084 | 0.0048 |
| N#Cc1ccc(-c2cncc3c2OCCN3C(=O)Cc2ccc(C(F)(F)F)cc2)cc1 [O45, 4-(4-(2-(4-(Trifluoromethyl)phenyl)acetyl)-3,4-dihydro-2H-pyrido[4,3-b][1,4]oxazin-8-yl)benzonitrile] | 0.614 | 0.0151 |
| N#Cc1ccc(-c2cncc3c2OCCN3C(=O)Cc2cccc(C(F)(F)F)c2)cc1 [O46, 4-(4-(2-(3-(Trifluoromethyl)phenyl)acetyl)-3,4-dihydro-2H-pyrido[4,3-b][1,4]oxazin-8-yl)benzonitrile] | 0.24 | 0.0057 |
| N#Cc1ccc(-c2cncc3c2OCCN3C(=O)CCc2ccc(F)cc2)cc1 [O47, 4-(4-(3-(4-Fluorophenyl)propanoyl)-3,4-dihydro-2H-pyrido[4,3-b][1,4]oxazin-8-yl)benzonitrile] | 0.052 | 0.0038 |
| N#Cc1ccc(-c2cncc3c2OCCN3C(=O)CCc2cccc(F)c2)cc1 [O48, 4-(4-(3-(3-Fluorophenyl)propanoyl)-3,4-dihydro-2H-pyrido[4,3-b][1,4]oxazin-8-yl)benzonitrile] | 0.117 | 0.0021 |
| N#Cc1ccc(-c2cncc3c2OCCN3C(=O)CCc2ccc(Cl)cc2)cc1 [O49, 4-(4-(3-(4-Chlorophenyl)propanoyl)-3,4-dihydro-2H-pyrido[4,3-b][1,4]oxazin-8-yl)benzonitrile] | 0.054 | 0.0016 |
| N#Cc1ccc(-c2cncc3c2OCCN3C(=O)CCc2cccc(Cl)c2)cc1 [O50, 4-(4-(3-(3-Chlorophenyl)propanoyl)-3,4-dihydro-2H-pyrido[4,3-b][1,4]oxazin-8-yl) benzonitrile] | 0.042 | 0.005 |
| COc1ccc(CCC(=O)N2CCOc3c(-c4ccc(C#N)cc4)cncc32)cc1 [O51, 4-(4-(3-(4-Methoxyphenyl)propanoyl)-3,4-dihydro-2H-pyrido[4,3-b][1,4]oxazin-8-yl)benzo nitrile] | 0.024 | 0.0007 |
| COc1cccc(CCC(=O)N2CCOc3c(-c4ccc(C#N)cc4)cncc32)c1 [O52, 4-(4-(3-(3-Methoxyphenyl)propanoyl)-3,4-dihydro-2H-pyrido[4,3-b][1,4]oxazin-8-yl)benzonitrile] | 0.051 | 0.0011 |
